Results published in patent US9278982B2, “Targeting human thymidylate kinase induces DNA repair toxicity in malignant tumor cells” (NATIONAL YANG-MING UNIVERSITY, priority 2010, dated 2016).
“Also recorded” adds a separate entry of the source. Values belong to the compound of their own block, whether it stands above or below them.

Assays:
[1] = test system: H184B5F5/M10, MCF-10A, MCF-7 and HCT-116 p53−/− cells; assay: Colony assay of cell viability, YMU1 versus FdUrd; conditions: various concentrations thrice a week, 14 days
Procedure: (B) H184B5F5/M10 cells were seeded onto 100 mm-dish at 5,000 cells/dish. MCF-10A, MCF-7 and HCT-116 p53^−/− cells were seeded onto 6 well plate at 600 cells/well. Following overnight culture, cells were treated with various concentration of YMU1 or FdUrd thrice a week. After 14 days colonies were fixed, stained by crystal violet.
We also compared the effect of YMU1 and FdUrd on cell viability of non-tumorigenic mammary cycling cells, H184B5F5/M10 and MCF-10A and tumor lines, MCF-7 and HCT-116 p53^−/− cells.
After 14 days, colonies were fixed and stained by crystal violet and counted.

HCT-116 p53−/− cells = assay: γH2AX foci staining for induction of DNA damage (genomic toxicity); type: cell-based, human; conditions: YMU1 2 μM 2 days; FdUrd 2 μM 1 day
Description: FIG. 14. Effect of YMU1 on genomic toxicity and DNA repair. […] After overnight, cells were exposed to doxorubicin and recovered. […]
TMPK and TS are key enzymes in dTTP synthesis and TS has been a major chemotherapy target (Garg et al., 2010). Inhibition of TS by FdUrd causes genome toxicity (Longley et al., 2003). Given the shared role of TMPK and TS in dTTP synthesis, we next compared the effects of blocking TMPK and TS by either shRNA interference or inhibitor treatment on the induction of DNA damage.
For γH2AX, Rad51 and XRCC1 staining, cells were fixed with 4% paraformaldehyde for 30 min at room temperature and were incubated with TBS (50 mM Tris-HCl, pH 7.4, 150 mM NaCl) plus 0.3% Triton X-100 for 5 min. The coverslips were blocked with MAXblock™ (Active Motif) for 1 h at 37° C., followed by staining with primary antibodies: anti-γH2AX monoclonal antibody (1:1000), anti-Rad51 polyclonal antibody (1:500) or anti-XRCC1 monoclonal antibody (1:500) overnight at 4° C. After extensive washing, cells were stained with secondary antibodies and Hoechst 33342 for 1 h at room temperature. After mounting, cells were analyzed and photographed with a Carl Zeiss fluorescence microscope equipped with AxioCam digital camera and Axio Vision Rel. 4.8 imaging software.

TMPK [2] = biological target: T1, TMPK (Homo sapiens, UniProt P23919); assay: In vitro TMPK inhibitory activity of TMPK inhibitor derivatives (inhibition yield); type: biochemical; set-up: GST (N, cleaved yes); made in house; host or cells: E. coli JM109 (pGEX-2T-hTMPK), inferred; conditions: 2 μM; n=3 or 6; read-out: inhibition yield, normalized to compound 21 (YMU1) = 100%
T1 sequence (P23919 1-212): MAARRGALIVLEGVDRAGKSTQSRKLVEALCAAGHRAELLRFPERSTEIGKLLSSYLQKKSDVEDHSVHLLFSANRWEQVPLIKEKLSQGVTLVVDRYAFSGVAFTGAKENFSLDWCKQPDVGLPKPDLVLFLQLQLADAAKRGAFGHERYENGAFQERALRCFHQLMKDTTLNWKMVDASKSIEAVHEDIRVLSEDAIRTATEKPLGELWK
Description: Chemical structures of the different TMPK inhibitor derivatives tested for in vitro TMPK inhibitory activity and in vivo doxorubicin sensitization activity (in MDA-MB231 cells) are depicted below.

panel of cell lines = assay: Doxorubicin sensitization, MTS viability assay, summary over the panel of cell lines; type: cell-based, human; conditions: all these cell lines; 72 h pre-treatment
Procedure: (§1) FIG. 16. In vitro and in vivo effect of YMU1 on doxorubicin sensitization. (A) A panel of cell lines were pre-treated with vehicle, YMU1 (compound 21), D6 (ethyl 4-(2-chloroacetyl)piperazine-1-carboxylate) or D7 (compound 28) for 3 days and were exposed to different concentration of doxorubicin for 4 h. […] The enhancement (fold) of doxorubicin sensitivity in each cell line was calculated. Data represent mean±s.d., n=3; each experiment was quadruplex. Inset indicates the IC50 value of doxorubicin in various cell lines. […] Following overnight culture, cells were refreshed with growth medium. After 14 days of culture, colonies were fixed, stained by crystal violet and counted. (C) HCT-116 p53^−/− cells were subcutaneously implanted in the right flank of Balb/c nude mice (each experimental group n=8). Arrow indicated the time of stopping drug treatment. The tumor volume was estimated as described in Methods of the Invention section. (D) After 2 weeks recovered from treatment, mice were sacrificed for tumor weight measurement. Data represent mean±s.e.m; **, P<0.01 by a two-tailed Student's t-test. (E) Ki 67 proliferation marker staining of tumor shown in left panel. Scale bar, 50 μm. (F) Model of doxorubicin sensitization by YMU1 in malignant cancer cells. Both R2/R1 and TMPK are recruited to the site of doxorubicin-induced double-strand breaks, where dATP, dGTP, dCTP, dTTP and dUTP are site-specific synthesized. Inhibition of TMPK decreases dTTP formation at DNA damage sites, causing futile DNA repair due to dUTP incorporation.
(§2) Next, various human cancer cell lines were treated with YMU1, D6 or D7 for 72 h to test the potential of TMPK inhibitor in doxorubicin sensitization. After exposure to different concentration of doxorubicin for 4 h, cells were refreshed for viability analysis after 2 days and the IC50 value for doxorubicin in each of the cell lines was determined (FIG. 16A and Table 2).
The ability of YMU1 to sensitize non-tumorigenic mammary cycling H184B5F5/M10, MCF10A, primary human mammary epithelial (HMEC) and primary renal epithelial (HREC) cells and IMR-90 embryonic lung fibroblasts to doxorubicin was much weaker.
(§3) Cells plated into a 96-well plate (10^3 cells/well) were treated and cell viability was measured by MTS assay (Promega) (Cory et al., 1991). An annexin V-fluorescein isothiocyanate (FITC) apoptosis kit (Calbiochem) was used to detect apoptosis. The cell cycle analysis was performed by staining cells with propidium iodide (PI) for fluorescence-activated cell sorter (FACS) analysis with CellQuest software.

TMPK [3] = biological target: T1, TMPK; assay: Luciferase-coupled TMPK assay; type: biochemical; set-up: GST (N, cleaved yes); made in house; host or cells: E. coli JM109 (pGEX-2T-hTMPK); conditions: purified hTMPK protein (0.5 μg), 10 min preincubation; listed as D7
Procedure: FIG. 12. Identification of a novel hTMPK inhibitor. (A) A screen of TMPK inhibitor by luciferase-coupled assay. (B) The chemical structures of YMU1 (compound 21) and related molecules. (C) Effect of YMU1 and derivative compounds on hTMPK inhibition using purified hTMPK protein (0.5 μg) with 10 min preincubation prior to reaction using luciferase-coupled TMPK analysis. (D) Effect of YMU1 on activity of purified TMPK (0.5 μg) and GST-hTK1 protein (5 μg) with 10 min preincubation prior to reaction. Data represent mean±s.d. (n=4) (E) Molecular models of the TMPK-YMU1 complex. Left panel: TMPK/ATP/Mg+2; right panel: TMPK/YMU1. The TMPK is represented in surface electrostatic potential (upper) and structural ribbon (lower). ATP and YMU1 are shown in green and blue stick, respectively, with colored atom (O, red; S, yellow; P, orange). TMP is shown in white backbone and Mg+2 in purple. Arrow indicates the position of Asp15.
Based on the functional requirement of TMPK in DNA repair specifically in tumor cells with elevated level of R2 expression, we searched for inhibitors of hTMPK that might be useful in selectively sensitizing tumor cells to doxorubicin. […] The synthetic procedure and structural elucidation of YMU1 (compound 21) are described in the Methods of the Invention section of the application.
The TMPK reaction was started by adding purified hTMPK in 50 μl of TMPK assay buffer (100 mM Tris-HCl, pH 7.5, 100 mM KCl, 10 mM MgCl2, 50 μM ATP and 100 μM dTMP) in 96 wells plate at 25° C. for 10 min and terminated by adding 200 μl of DTNB (100 μM), followed by transferring 10 μl of reaction solution to a white 96-wellplate containing 90 μl of luciferase assay buffer (50 mM Glycine, 0.5 mM EDTA and 5 mM EDTA, pH 7.0, 0.1 μg of luciferase, 50 μM luciferin and 0.1% BSA). The luminescence was measured with a luminescence counter (Packard).

Capan1 = assay: Doxorubicin sensitization, MTS viability assay; type: cell-based, human; conditions: Homo sapiens, CAPAN-1, vehicle 72 h, doxorubicin 4 h, viability after 2 days, read-out: IC50 of doxorubicin treatment, Vehicle
Procedure: as §1, §2, §3

HCT-116p53−/− = assay: Doxorubicin sensitization, MTS viability assay; type: cell-based, human; conditions: Homo sapiens, vehicle 72 h, doxorubicin 4 h, viability after 2 days, read-out: IC50 of doxorubicin treatment, Vehicle
Procedure: as §1, §2, §3

MCF-10A = assay: Doxorubicin sensitization, MTS viability assay; type: cell-based, human; conditions: Homo sapiens, vehicle 72 h, doxorubicin 4 h, viability after 2 days, read-out: IC50 of doxorubicin treatment, Vehicle
Procedure: as §1, §2, §3

HT-29 = assay: Doxorubicin sensitization, MTS viability assay; type: cell-based, human; conditions: Homo sapiens, vehicle 72 h, doxorubicin 4 h, viability after 2 days, read-out: IC50 of doxorubicin treatment, Vehicle
Procedure: as §1, §2, §3

SaoS2 = assay: Doxorubicin sensitization, MTS viability assay; type: cell-based, human; conditions: Homo sapiens, SAOS-2, vehicle 72 h, doxorubicin 4 h, viability after 2 days, read-out: IC50 of doxorubicin treatment, Vehicle
Procedure: as §1, §2, §3

HCC1037 = assay: Doxorubicin sensitization, MTS viability assay; type: cell-based, human; conditions: Homo sapiens, vehicle 72 h, doxorubicin 4 h, viability after 2 days, read-out: IC50 of doxorubicin treatment, Vehicle
Procedure: as §1, §2, §3

HMEC = assay: Doxorubicin sensitization, MTS viability assay; type: cell-based, human; conditions: Homo sapiens, vehicle 72 h, doxorubicin 4 h, viability after 2 days, read-out: IC50 of doxorubicin treatment, Vehicle
Procedure: as §1, §2, §3

MDA-MB468 = assay: Doxorubicin sensitization, MTS viability assay; type: cell-based, human; conditions: Homo sapiens, MDA-MB-468, vehicle 72 h, doxorubicin 4 h, viability after 2 days, read-out: IC50 of doxorubicin treatment, Vehicle
Procedure: as §1, §2, §3

CL-1-0 = assay: Doxorubicin sensitization, MTS viability assay; type: cell-based, human; conditions: Homo sapiens, CL1-0, vehicle 72 h, doxorubicin 4 h, viability after 2 days, read-out: IC50 of doxorubicin treatment, Vehicle
Procedure: as §1, §2, §3

IMR-90 = assay: Doxorubicin sensitization, MTS viability assay; type: cell-based, human; conditions: Homo sapiens, vehicle 72 h, doxorubicin 4 h, viability after 2 days, read-out: IC50 of doxorubicin treatment, Vehicle
Procedure: as §1, §2, §3

HCT-116p53+/+ = assay: Doxorubicin sensitization, MTS viability assay; type: cell-based, human; conditions: Homo sapiens, vehicle 72 h, doxorubicin 4 h, viability after 2 days, read-out: IC50 of doxorubicin treatment, Vehicle
Procedure: as §1, §2, §3

H1299 = assay: Doxorubicin sensitization, MTS viability assay; type: cell-based, human; conditions: Homo sapiens, NCI-H1299, vehicle 72 h, doxorubicin 4 h, viability after 2 days, read-out: IC50 of doxorubicin treatment, Vehicle
Procedure: as §1, §2, §3

HREC = assay: Doxorubicin sensitization, MTS viability assay; type: cell-based, human; conditions: Homo sapiens, vehicle 72 h, doxorubicin 4 h, viability after 2 days, read-out: IC50 of doxorubicin treatment, Vehicle
Procedure: as §1, §2, §3

H184B5F5/M10 = assay: Doxorubicin sensitization, MTS viability assay; type: cell-based, human; conditions: Homo sapiens, vehicle 72 h, doxorubicin 4 h, viability after 2 days, read-out: IC50 of doxorubicin treatment, Vehicle
Procedure: as §1, §2, §3

U2OS = assay: Doxorubicin sensitization, MTS viability assay; type: cell-based, human; conditions: Homo sapiens, vehicle 72 h, doxorubicin 4 h, viability after 2 days, read-out: IC50 of doxorubicin treatment, Vehicle
Procedure: as §1, §2, §3

SMILES: O=c1[nH]c(=O)n([C@H]2C[C@H](O)[C@@H](CO)O2)cc1F [FdUrd, 5-fluoro-2′deoxyuridine]
death of cells in colony assay [1]: caused death of these cells
induction of DNA damage (γH2AX staining) (HCT-116 p53−/− cells): induced severe DNA damage

SMILES: COC(=O)Cn1sc2nc(C)cc(C)c2c1=O [compound 7, Methyl 2-(4,6-dimethyl-3-oxoisothiazolo[5,4-b]pyridin-2(3H)-yl)acetate]
inhibition at 2 µM (TMPK [2]): 98.3%
melting point: 89 to 91 °C

SMILES: COc1cccc2c1C(=O)c1c(O)c3c(c(O)c1C2=O)C[C@@](O)(C(=O)CO)C[C@@H]3O[C@H]1C[C@H](N)[C@H](O)[C@H](C)O1 [doxorubicin, reference compound]
IC50 (Capan1): 1.13 ± 0.02 µM
IC50 (HCT-116p53−/−): 4.1 ± 0.01 µM
IC50 (MCF-10A): 5.22 ± 0.39 µM
IC50 (HT-29): 12.1 ± 1.64 µM
IC50 (SaoS2): 7.83 ± 0.02 µM
IC50 (HCC1037): 5.52 ± 0.39 µM
IC50 (HMEC): 23.6 ± 1.23 µM
IC50 (MDA-MB468): 0.25 ± 0.08 µM
IC50 (CL-1-0): 4.9 ± 0.2 µM
IC50 (IMR-90): 14.2 ± 3.21 µM
IC50 (HCT-116p53+/+): 2.66 ± 0.49 µM
IC50 (H1299): 7.19 ± 0.77 µM
IC50 (HREC): 22.1 ± 1.18 µM
IC50 (H184B5F5/M10): 4.15 ± 0.06 µM
IC50 (U2OS): 4.58 ± 0.14 µM

Second part, led by results:

inhibition at 2 µM (TMPK [2]): 16%
melting point: 153 to 155 °C
SMILES: Cc1cc(C)c2c(OCC(=O)N3CCOCC3)nsc2n1 [compound 27, 2-(4,6-Dimethylisothiazolo[5,4-b]pyridin-3-yloxy)-1-morpholinoethanone]

inhibition at 2 µM (TMPK [2]): 14.7%
melting point: 88 to 90 °C
SMILES: CCOC(=O)N1CCN(C(=O)COc2nsc3nc(C)cc(C)c23)CC1 [compound 28, Ethyl 4-(2-(4,6-dimethylisothiazolo[5,4-b]pyridin-3-yloxy)acetyl)piperazine-1-carboxylate]
doxorubicin sensitization effect (panel of cell lines): had no doxorubicin sensitization effect
inhibition against hTMPK (TMPK [3]): Neither D6 (as the piperazine fragment of YMU1) nor D7 (as the O-alkylation isomer of YMU1) showed any inhibition; also recorded: do not inhibit TMPK
